Tests used:
[1] = system: E. coli (strain ATCC 4157); experiment: Nutrient broth study of LAE materials (aerobic plate count of E. coli culture); format: cell-based; conditions: 0.5 g in 50 mL E. coli broth culture; for Aerobe Count Trial 1 CFU/g / Aerobe Count Trial 1 Log CFU/g / Aerobe Count Trial 1 Mean Log CFU/g / Aerobe Count Trial 2 CFU/g / Aerobe Count Trial 2 Log CFU/g / Aerobe Count Trial 2 Mean Log CFU/g: 45° C.; for growth of bacteria: over the 48 hour time period
Description: A culture of Difco nutrient broth (available from Weber Scientific, Hamilton, N.J., United States of America) and E. coli (strain ATCC® 4157™ KWIK STIK™, available from MicroBioLogics, Inc., St. Cloud, Minn., United States of America) was prepared by adding 1 tube of the E. coli to 400 mL of broth medium and incubating overnight at 37° C. Particularly, sample 1 was the positive control, sample 2 contained 0.5 g LAE HCl, sample 3 contained 0.5 g LAE monolaurate, and Sample 4 was the negative control.
Samples 1-4 were incubated at 45° C. and the number of E. coli counts was determined by plating about 1.0 mL of each sample onto aerobic plate count 3M Petrifilm™ plates (available from 3M Microbiology Products, St. Paul, Minn., United States of America) at 0, 24, and 48 hour time points. The experiments were conducted in duplicate.

[2] = system: E. coli counts / microbial contamination in beef purge; experiment: Beef purge study of LAE materials (aerobic plate count); format: cell-based; conditions: 0.5 g in 10 mL beef purge
Description: About 30 mL of purge was isolated from two beef tenderloin packages and transferred to three test tubes (10 mL/tube). As set forth in Table 5 below, 0.5 g LAE HCl was added to the purge in sample 5 and 0.5 g LAE monolaurate was added to the purge in sample 6. Sample 7 was the positive control and contained no LAE derivative.
The samples were mixed using a vortex mixer and E. coli counts were determined by plating about 1.0 mL on aerobic plate count 3M Petrifilm™ plates for time 0 readings. The test tubes were then stored in a refrigerator (4° C.) and E. coli counts were determined by plating about 1.0 mL on aerobic plate count 3M Petrifilm™ at 24 and 48 hours. As set forth in Table 6, below, both LAE HCl and LAE Monolaurate eliminated over 99% of the microbial contamination at the 24 and 48 hour time points.

| SMILES | Aerobe Count Trial 1 CFU/g ([1]; 0 hrs) [CFU/g] | Aerobe Count Trial 1 Log CFU/g ([1]; 0 hrs) [Log CFU/g] | Aerobe Count Trial 1 Mean Log CFU/g ([1]; 0 hrs) [Log CFU/g] | Aerobe Count Trial 2 CFU/g ([1]; 0 hrs) [CFU/g] | Aerobe Count Trial 2 Log CFU/g ([1]; 0 hrs) [Log CFU/g] | Aerobe Count Trial 2 Mean Log CFU/g ([1]; 0 hrs) [Log CFU/g] | Aerobe Count Trial 1 CFU/g ([1]; 24 hrs) [CFU/g] | Aerobe Count Trial 1 Log CFU/g ([1]; 24 hrs) [Log CFU/g] | Aerobe Count Trial 1 Mean Log CFU/g ([1]; 24 hrs) [Log CFU/g] | Aerobe Count Trial 2 CFU/g ([1]; 24 hrs) [CFU/g] | Aerobe Count Trial 2 Log CFU/g ([1]; 24 hrs) [Log CFU/g] | Aerobe Count Trial 2 Mean Log CFU/g ([1]; 24 hrs) [Log CFU/g] | Aerobe Count Trial 1 CFU/g ([1]; 48 hrs) [CFU/g] | Aerobe Count Trial 1 Log CFU/g ([1]; 48 hrs) [Log CFU/g] | Aerobe Count Trial 1 Mean Log CFU/g ([1]; 48 hrs) [Log CFU/g] | Aerobe Count Trial 2 CFU/g ([1]; 48 hrs) [CFU/g] | Aerobe Count Trial 2 Log CFU/g ([1]; 48 hrs) [Log CFU/g] | Aerobe Count Trial 2 Mean Log CFU/g ([1]; 48 hrs) [Log CFU/g] | growth of bacteria [1] | % Reduction ([2]; 0 hrs) [%] | also measured |
| --- | --- | --- | --- | --- | --- | --- | --- | --- | --- | --- | --- | --- | --- | --- | --- | --- | --- | --- | --- | --- | --- |
| CCCCCCCCCCCC(=O)N[C@@H](CCCN=C(N)N)C(=O)OCC.Cl [LAE HCl, ethyl n-lauroyl-L-arginate hydrochloride salt] | 1 | 0.00 | 0 | 1 | 0.00 | 0 | 1 | 0.00 | 0 | 1 | 0.00 | 0 | 1 | 0.00 | 0 | 1 | 0.00 | 0 | no growth of bacteria | 99.766 | Avg. CFU/g ([2]; 0 hrs): <1.000E+02 CFU/g; Log CFU/g Mean ([2]; 0 hrs): <2.00 Log CFU/g; % Reduction ([2]; 24 hrs at 4° C.): 99.990%; Avg. CFU/g ([2]; 24 hrs at 4° C.): <1.000E+02 CFU/g; Log CFU/g Mean ([2]; 24 hrs at 4° C.): <2.00 Log CFU/g; % Reduction ([2]; 48 hrs at 4° C.): 99.999%; Avg. CFU/g ([2]; 48 hrs at 4° C.): <1.000E+02 CFU/g; Log CFU/g Mean ([2]; 48 hrs at 4° C.): <2.00 Log CFU/g |
| CCCCCCCCCCCC(=O)N[C@@H](CCCNC(=N)N)C(=O)OCC.CCCCCCCCCCCC(=O)O [LAE monolaurate, ethyl n-lauroyl-L-arginate laurate complex] | 1 | 0.00 | 0 | 1 | 0.00 | 0 | 1 | 0.00 | 0 | 1 | 0.00 | 0 | 1 | 0.00 | 0 | 1 | 0.00 | 0 | no growth of bacteria | 8.798 | Avg. CFU/g ([2]; 0 hrs): 3.890E+04 CFU/g; Log CFU/g Mean ([2]; 0 hrs): 4.59 Log CFU/g; % Reduction ([2]; 24 hrs at 4° C.): 90.880%; Avg. CFU/g ([2]; 24 hrs at 4° C.): 8.913E+04 CFU/g; Log CFU/g Mean ([2]; 24 hrs at 4° C.): 4.95 Log CFU/g; % Reduction ([2]; 48 hrs at 4° C.): 99.960%; Avg. CFU/g ([2]; 48 hrs at 4° C.): 2.818E+03 CFU/g; Log CFU/g Mean ([2]; 48 hrs at 4° C.): 3.45 Log CFU/g |
